Tests used:
[1] = neutral pH; cited from earlier work
cancer cells line A549 = assay: in vitro cytotoxicity, MTT viability assay; type: cell-based; conditions: free EPT, concentration not given
Description: The cellular toxicity of blank and EPT loaded scl-PHA nanoparticles as prepared in Example 2 were determined by using cancer cells line A549. The cells were cultured in Dulbecco's Modified Eagle's Medium (DMEM) containing 1% (v/v) Penicillin-Streptomycin (P/S, 10,000 U) antibiotic and 10% (v/v) Fetal Bovine Serum (FBS) and incubated for 24 h at 37° C. and 5% CO2. When cells grew to reach 95% confluence, they were detached from the cell culture flasks using trypsin-EDTA. The cell suspension was centrifuged at 900 rpm for 5 min and then resuspended in culture medium to get the final concentration of 1×10^5 cells/mL. About 200 μL of the cell suspensions were transferred to each well of a clear, flat bottom 96-well plate (Costar) and incubated for 24 h. On treatment day, medium was removed and fresh medium containing 4-fold serial dilutions i.e., 250.0 μg/mL (4 times), 62.5 μg/mL (8 times) and 1.6 μg/mL (12 times) of blank and EPT loaded scl-PHA nanoparticles was added. The toxicity of the nanoparticles was checked after 24, 48 and 72 h of treatment using 3-(4,5-dimethylthiazole-2-yl)-2,5-diphenyl tetrazolium (MTT) viability assay. About 5 mg of MTT was dissolved in 1 mL physiological buffer saline (PBS) solution, followed by 10 times dilution in culture medium. About 100 μL of MTT solution were added to each well after the removal of treatments and incubated for 4 h before the addition of 100 μl, of the solubilization solution (anhydrous isopropanol containing 0.1 N HCl and 10% Triton X-100). The plates were then incubated overnight and absorbance was taken at 570 nm on a microplate reader (BMG FLUOstar OPTIMA) and subtracted from the background signals at 690 nm. The cell % inhibition was calculated relative to wells containing only cell cultures without nanoparticles by using the following formula: […]

Cc1c2ccncc2c(C)c2c1[nH]c1ccccc12 [EPT, 5,11-dimethyl-6H-pyrido[4,3-b]carbazole]
water solubility [1]: approximately 0.62 mM | Relative % inhibition for A549 cells (cancer cells line A549; 24 h): 10.02 ± 0.86% | Relative % inhibition for A549 cells (cancer cells line A549; 48 h): 25.40 ± 1.35% | Relative % inhibition for A549 cells (cancer cells line A549; 72 h): 32.38%
